Values after ≈ are worked out from the molar mass of the structure shown.
Key:
Plasmodium falciparum = experiment: Antimalarial activity against Plasmodium falciparum in infected in human RBC; assay type: functional, organism-based; settings: Erythrocyte
Dihydrofolate reductase = target: T1, Dihydrofolate reductase (Bos taurus, UniProt P00376); experiment: Inhibition of bovine liver DHFR using FH2 as substrate preincubated for 2 mins followed by substrate addition
T1 sequence (P00376 whole entry): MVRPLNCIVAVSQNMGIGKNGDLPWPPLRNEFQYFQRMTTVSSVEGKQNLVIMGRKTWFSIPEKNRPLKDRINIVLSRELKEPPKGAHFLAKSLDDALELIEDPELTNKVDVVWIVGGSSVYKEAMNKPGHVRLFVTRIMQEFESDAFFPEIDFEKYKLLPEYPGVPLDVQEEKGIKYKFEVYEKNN

Vero = experiment: Cytotoxicity against African green monkey Vero cells up to 15 ug/ml after 72 hrs by MTT assay; assay type: cell-based; settings: chlorocebus sabaeus
bovine liver DHFR = experiment: Selectivity index, ratio of IC50 for African green monkey Vero cells to IC50 for bovine liver DHFR; assay type: toxicity; settings: read-out: Ratio IC50

| Compound | IC50 (Plasmodium falciparum) [µg/mL] | IC50 (Dihydrofolate reductase) [nM] | Activity (Vero) | selectivity ratio (bovine liver DHFR) |
| --- | --- | --- | --- | --- |
| CC(=O)Nc1ccc(S(=O)(=O)NC(C)c2nc3ccccc3c(=O)n2/N=C/c2ccc(C)cc2)cc1 (stereo not given) | 0.068 (≈ 0.135 µM) | 165 | Non-Toxic | 181 |
| CC(=O)Nc1ccc(S(=O)(=O)NC(C)c2nc3ccccc3c(=O)n2/N=C/c2cccc(C)c2)cc1 (stereo not given) | 0.72 (≈ 1.43 µM) | – | – | – |
| COc1ccccc1/C=N/n1c(C(C)NS(=O)(=O)c2ccc(NC(C)=O)cc2)nc2ccccc2c1=O (stereo not given) | 0.78 (≈ 1.5 µM) | – | – | – |
| COc1cccc(/C=N/n2c(C(C)NS(=O)(=O)c3ccc(NC(C)=O)cc3)nc3ccccc3c2=O)c1 (stereo not given) | 1.02 (≈ 1.97 µM) | – | – | – |
| CC(=O)Nc1ccc(S(=O)(=O)NC(C)c2nc3ccccc3c(=O)n2/N=C/c2cccc(Cl)c2)cc1 (stereo not given) | 1.01 (≈ 1.93 µM) | – | – | – |
| CC(=O)Nc1ccc(S(=O)(=O)NC(C)c2nc3ccccc3c(=O)n2/N=C/c2ccccc2)cc1 (stereo not given) | 1.1 (≈ 2.25 µM) | – | – | – |
| CC(=O)Nc1ccc(S(=O)(=O)NC(C)c2nc3ccccc3c(=O)n2/N=C/c2ccccc2Cl)cc1 (stereo not given) | 1.05 (≈ 2.01 µM) | – | – | – |
| CC(=O)Nc1ccc(S(=O)(=O)NC(C)c2nc3ccccc3c(=O)n2/N=C/c2cccc(O)c2)cc1 (stereo not given) | 1.01 (≈ 2 µM) | – | – | – |
| CC(=O)Nc1ccc(S(=O)(=O)NC(C)c2nc3ccccc3c(=O)n2/N=C/c2ccc(O)cc2)cc1 (stereo not given) | 0.72 (≈ 1.42 µM) | – | – | – |
| CC(=O)Nc1ccc(S(=O)(=O)NC(C)c2nc3ccccc3c(=O)n2/N=C/c2ccccc2Br)cc1 (stereo not given) | 0.78 (≈ 1.37 µM) | – | – | – |
| CC(=O)Nc1ccc(S(=O)(=O)NC(C)c2nc3ccccc3c(=O)n2/N=C/c2ccc(Cl)cc2)cc1 (stereo not given) | 0.72 (≈ 1.37 µM) | – | – | – |
| CC(=O)Nc1ccc(S(=O)(=O)NC(C)c2nc3ccccc3c(=O)n2/N=C/c2ccc([N+](=O)[O-])cc2)cc1 (stereo not given) | 0.084 (≈ 0.157 µM) | 82.3 | Non-Toxic | 341 |
| CC(=O)Nc1ccc(S(=O)(=O)NC(C)c2nc3ccccc3c(=O)n2/N=C/c2ccccc2O)cc1 (stereo not given) | 1.05 (≈ 2.08 µM) | – | – | – |
| CC(=O)Nc1ccc(S(=O)(=O)NC(C)c2nc3ccccc3c(=O)n2/N=C/c2ccc(Br)cc2)cc1 (stereo not given) | 0.67 (≈ 1.18 µM) | – | – | – |
| CC(=O)Nc1ccc(S(=O)(=O)NC(C)c2nc3ccccc3c(=O)n2/N=C/c2ccc(F)cc2)cc1 (stereo not given) | 0.084 (≈ 0.166 µM) | 67 | Non-Toxic | 441 |
| CC(=O)Nc1ccc(S(=O)(=O)NC(C)c2nc3ccccc3c(=O)n2/N=C/c2ccccc2C)cc1 (stereo not given) | 1.28 (≈ 2.54 µM) | – | – | – |
| CC(=O)Nc1ccc(S(=O)(=O)NC(C)c2nc3ccccc3c(=O)n2/N=C/c2cccc(Br)c2)cc1 (stereo not given) | 1.02 (≈ 1.8 µM) | – | – | – |
| CC(=O)Nc1ccc(S(=O)(=O)NC(C)c2nc3ccccc3c(=O)n2/N=C/c2ccccc2[N+](=O)[O-])cc1 (stereo not given) | 0.7 (≈ 1.31 µM) | – | – | – |
| CC(=O)Nc1ccc(S(=O)(=O)NC(C)c2nc3ccccc3c(=O)n2/N=C/c2cccc(F)c2)cc1 (stereo not given) | 0.092 (≈ 0.181 µM) | 53.2 | Non-Toxic | 556 |
| CC(=O)Nc1ccc(S(=O)(=O)NC(C)c2nc3ccccc3c(=O)n2/N=C/c2cccc([N+](=O)[O-])c2)cc1 (stereo not given) | 0.092 (≈ 0.172 µM) | 99.1 | Non-Toxic | 283 |
| COc1ccc(/C=N/n2c(C(C)NS(=O)(=O)c3ccc(NC(C)=O)cc3)nc3ccccc3c2=O)cc1 (stereo not given) | 0.67 (≈ 1.29 µM) | – | – | – |
| CC(=O)Nc1ccc(S(=O)(=O)NC(C)c2nc3ccccc3c(=O)n2/N=C/c2ccccc2F)cc1 (stereo not given) | 0.7 (≈ 1.38 µM) | – | – | – |
| CCc1nc(N)nc(N)c1-c1ccc(Cl)cc1 [PYRIMETHAMINE] | 0.25 (≈ 1.01 µM) | – | – | – |
| C=C[C@H]1CN2CC[C@H]1C[C@H]2[C@H](O)c1ccnc2ccc(OC)cc12 [QUININE] | 0.268 (≈ 0.826 µM) | – | – | – |
| COc1cc(Cc2cnc(N)nc2N)cc(OC)c1OC [TRIMETHOPRIM] | 0.38 (≈ 1.31 µM) | – | – | – |
